Article PMC12431657, “Discovery and mechanistic insights of dibenzoylmethane as a broad spectrum inhibitor of coronavirus” (PLOS Pathogens, 2025)
Where “and” joins values, the source holds several entries; their conditions need not be identical. Equal values may be shown once.

Experiments:
Type in all cases: cell-based
[1] = test system: SARS-CoV-2 variant Omicron (BA.5); experiment: microbe, parasite or virus in culture; settings: for EC50: Severe acute respiratory syndrome coronavirus 2, 24 h, read-out: EC50 BA.5 (293T-AT)
[2] = test system: SARS-CoV-2 variant Delta (B.1.617.2); experiment: microbe, parasite or virus in culture; settings: for EC50: Severe acute respiratory syndrome coronavirus 2, 24 h, read-out: EC50 B.1.617.2 (293T-AT)
[3] = test system: SARS-CoV-2 variant Omicron (BA.5)

Row | SMILES | EC50 [1] [nM] | B.1.617.2, HEK293T-AT: inhibition at the concentration (Fig2B) [2] | EC50 [2] [nM] | inhibitory effect against SARS-CoV-2 BA.5 in Vero E6 cells [3] | BA.5, HEK293T-AT: inhibition at the concentration (Fig2B) [1] | inhibitory effect against SARS-CoV-2 BA.5 in HEK293T-AT cells [1]
1 | C/C=C(/C)C(=O)OC(C)(C)[C@@H]1Cc2c(ccc3ccc(=O)oc23)O1 [Columbianadin, columbianadin] | < 80 | 99.1 and 99.3 | < 80 | – | – | –
2 | O=C(CC(=O)c1ccccc1)c1ccccc1 [DBM, dibenzoylmethane] | 6630 | – | 20800 | but not in Vero E6 cells | 97.4 | demonstrated efficacy
3 | CCC(=O)O[C@H]1[C@H](O[C@@H]2[C@@H](C)[C@H](O[C@H]3C[C@@](C)(OC)[C@@H](O)[C@H](C)O3)[C@@H](C)C(=O)O[C@H](CC)[C@@](C)(O)[C@H](O)[C@@H](C)C(=O)[C@H](C)C[C@@]2(C)O)O[C@H](C)C[C@@H]1N(C)C [Erythromycin estolate, erythromycin estolate, reference compound] | < 80 | 98.9 and 99.6 and 99.2 | < 80 | – | – | –
4 | CC1=C[C@]23C(=O)[C@@H](C=C(COC(=O)c4ccccc4)[C@@H](O)[C@]2(O)[C@H]1OC(=O)c1ccccc1)[C@H]1[C@@H](C[C@H]3C)C1(C)C [Ingenol 3,20-dibenzoate, ingenol 3,20-dibenzoate] | < 80 | 81.2 | < 80 | – | – | –
5 | Cc1c([C@H](C)[C@@H]2NC[C@@H](C)C[C@H]2O)ccc2c1C[C@H]1[C@H]2CC=C2C[C@@H](O)CC[C@@]21C [Veratramine, veratramine] | < 80 | 99.1 and 99.7 and 99.9 | < 80 | – | 81.3 | –
